In patent publication US20170312221A1, “PHARMACEUTICAL PREPARATION AND METHOD OF ITS PRODUCTION AND USE” (priority 2014, published 2017):

Key:
Test in all cases: minimum inhibitory concentration
Type in all cases: cell-based
[1] = system: Streptococcus pyogenes 421
[2] = system: Staphylococcus aureus ATCC 25923
[3] = system: Proteus vulgaris X
[4] = system: Escherichia coli NTCT 10418

Minimum inhibitory concentration (MIC) Streptococcus pyogenes 421 [1]: 0.12
Minimum inhibitory concentration (MIC) Staphylococcus aureus ATCC 25923 [2]: 0.25
Minimum inhibitory concentration (MIC) Proteus vulgaris X [3]: 64
Minimum inhibitory concentration (MIC) Escherichia coli NTCT 10418 [4]: 128
Structure (SMILES): C/C(=C\C(=O)OCCCCCCCCC(=O)O)C[C@@H]1OC[C@H](C[C@@H]2O[C@H]2[C@@H](C)[C@H](C)O)[C@@H](O)[C@H]1O [Mupirocin]
